# Results reported in US20020054941A1, “Methods and compositions to enhance tenderness and value of meat” (The Board of Regents of the University of Nebraska, priority 2000, published 2002).
# Marks after values point to notes of the source that are not given here.
# Columns and labels:
# [1] = tested on: supraspinatus beef muscles; assay: Glycogen content, pre-rigor injection of whole muscle
# Method: (§1) Experiment were conducted to test the effects of pre-rigor injection of several compounds. Effects of these compounds on pH, color, tenderness and other related traits of low-value beef cuts were investigated. Ten steers (22 to 24 mo of age, 515 to 676 kg live weight) were slaughtered according to current industry procedures. Pre-rigor semimembranosus (from the round), triceps brachii and supraspinatus muscles (from the chuck) were excised, after evisceration (approximately 1 hour post-mortem), from both sides of the carcass. Muscle sections were randomly assigned to the treatments: sodium citrate (NaC; 200 mM), sodium fluoride (NaF; 200 mM), sodium acetate (NaA; 200 mM), and calcium chloride (CaCl2; 300 mM). The control samples remained on the carcass at 2° C. for 24 hours to simulate commercial conditions. Following a cooling, control muscles were removed from each carcass (4 replicates), vacuum packaged and transferred to the holding cooler with the other cuts at 2° C. Calcium chloride treatment was included to be compared with the other treatments.
# (§2) At 2 hours post-mortem, each muscle was injected with a volume equal to 8% of the muscle weight using a four-needle hand injector. The temperature of solutions were 4° C. Each muscle was individually treated (2% of solution was added to give a total of 10% of muscle weight) and tumbled in a 75-pound capacity tumbler (Röschermatic, Oshabrück, Germany) for 30 min to insure uniform distribution of the solution.
# (§3) Samples of each muscle (approximately 100 g) were taken at 0 hour (before injection), 24, and 72 hours after injection for determination of pH, oxidation-reduction potential, glycogen content, R-values, NAD, and NADH. The samples were then immediately frozen in liquid nitrogen and stored at −80° C. until they were powdered and analyzed. Fresh muscle samples (approximately 20 g) were taken at 72 hours after injection and assayed immediately for water holding capacity and sarcomere length.
# (§4) Glycogen extraction was performed in duplicate with 3 g of frozen-powdered muscle sample, which was homogenized with 0.6 N perchloric acid. Amylo-α-1,4-α-1,6- glucosidase from Aspergillus niger (No. A3514. Sigma Chemical, St. Louis, Mo.) was used for the breakdown of the glycogen molecules to free glucose following the method described by Roehrig and Allred (1974). Homogenate was incubated for 2 hours at 37° C., then 100 μL of 3 N perchloric acid was added to precipitate the proteins. After centrifugation, the supernatant was stored at 0-4° C., until analyzed, which was within 2 weeks.
# (§5) The assay for glucose was run as described by Dalrymple and Hamm (1973) and Roehrig and Allred (1974), using glucose-6-phosphate dehydrogenase (No. G8878. Sigma Chemical, St. Louis, Mo.) and hexokinase (No. H5500. Sigma Chemical, St. Louis, Mo.). Briefly, the method involves an exoglucosidase, Amylogucosidase, from Aspergillus niger which hydrolyses the -α-D-(1-4) and -α-D-(1-6)-linkages of glycogen. The glucose formed is specifically determined with hexokinase and glucose-6-phosphate dehydrogenase. The glucose liberated after hydrolysis of glycogen is proportional to the increase of absorbance measured at 340 nm. Fifty μL of sample was incubated with 1 mL ATP, NADP, Glucose-6-phosphate dehydrogenase buffer and 5 μL hexokinase at 37° C. for 15 min. Absorbance was measured at 340 nm wavelength, light path=1 cm. The muscle glycogen content was calculated with the following formula: Glycogen (μmol glucose/g wet muscle weight)=111.882×absorbance. 111.882 is the dilution factor.
# [2] = tested on: semimembranosus beef muscles; assay: as above
# Method: as §1, §2, §3, §4, §5
# [3] = 24 h, 200 mM, calcium chloride 300 mM
# [4] = 72 h, 200 mM, calcium chloride 300 mM
compound,measurement,setting,value
"O=C([O-])CC(O)(CC(=O)[O-])C(=O)[O-].[Na+].[Na+].[Na+] [Sodium citrate, sodium citrate]","Glycogen, 0 h",[1]; 0 h (before injection),45.18 μmol/g muscle
same,"Glycogen, 24 h",[1]; [3],30.43 μmol/g muscle
same,"Glycogen, 72 h",[1]; [4],22.65^ab μmol/g muscle
same,"Glycogen, 0 h",[2]; 0 h (before injection),65.12 μmol/g muscle
same,"Glycogen, 24 h",[2]; [3],52.83^a μmol/g muscle
same,"Glycogen, 72 h",[2]; [4],45.65^a μmol/g muscle
